The record followed here is patent US10874745B2, “Antimicrobial peptides and methods of treating gram-negative pathogens: polar and non-polar face analogs” (priority 2017, dated 2020).

Series [1] deals with MRSA. Description: Resistance profile of MRSA strains. It is filed as cell-based, Staphylococcus aureus. Further details: key: R denotes resistant; S denotes sensitive.
Series [2] concerns MSSA. Briefly: Resistance profile of MSSA strains. It counts as cell-based, Staphylococcus aureus. Also noted: key: R denotes resistant; S denotes sensitive.
In series [3] the test system is A. baumannii strains resistant to Polymyxin B and Colistin. It is filed as cell-based. As to conditions: for MICGM: geometric mean, 7 A. baumannii strains resistant to polymyxin B and colistin.
Series [4] is described as follows: Hemolytic activity. It is filed as cell-based, human. The note with it: 1% human erythrocytes (red blood cells), pH 7.4. The method, then: Hemoglobin release was determined spectrophotometrically at 570 nm. […] […] […] With the peptides used in this study the inventors used the HC30/MIC ratio value to calculate the therapeutic index.
Setting [5] is: 50% hemolysis of human red blood cells after 18 hours at 37° C., read-out: HC50.

In general, MIC refers to the least concentration at which growth counts as inhibited. Usually HC50 stands for the concentration that lyses half of the red blood cells.

Values after ≈ are worked out from the molar mass of the structure shown. Values joined by “and” are separate entries in the source; they are usually repeats but may differ in a detail not shown here. Equal values may be shown once. Read-outs that look alike come from different tables or passages of the source. Non-standard residues stand in square brackets, D forms with d. Residues, ends and D or L forms follow the SMILES beside them.

As for `CC[C@H]1OC(=O)[C@H](C)[C@@H](O[C@H]2C[C@@](C)(OC)[C@@H](O)[C@H](C)O2)[C@H](C)[C@@H](O[C@@H]2O[C@H](C)C[C@H](N(C)C)[C@H]2O)[C@](C)(O)C[C@@H](C)C(=O)[C@H](C)[C@@H](O)[C@]1(C)O` [Erythromycin], the “Antibiotic Susceptibility” value is listed as “R” in series [1] (MRSA strain M21742 (Nose)); “S” in series [1] (MRSA strain M21756 (Nose)); “R” in series [1] (MRSA strain M22111 (Ear)); “R” in series [1] (MRSA strain M22130); “R” in series [1] (MRSA strain M22224 (Leg)); “R” in series [1] (MRSA strain M22354). The “Antibiotic Susceptibility” value is “R” in series [1] (MRSA strain M22360 (Labia)); “R” in series [1] (MRSA strain M22424 (Arm)); “S” in series [2] (MSSA strain BL7429 (Blood)); “S” in series [2] (MSSA strain M21913 (Finger)); “S” in series [2] (MSSA strain M22075 (Axilla)); “S” in series [2] (MSSA strain M22097 (Neck)). For the same compound, the “Antibiotic Susceptibility” value in series [2] (MSSA strain M22274 (Spine)), in series [2] (MSSA strain M22300 (Finger)), in series [2] (MSSA strain M22312 (Finger)) and in series [2] (MSSA strain M22315) was “S” in each case.
With Polymyxin B [reference compound], the MICGM in series [3] is >25 µM. In addition, the MIC in series [3] (strain M89941), in series [3] (strain M89949), in series [3] (strain M89951), in series [3] (strain M89952), in series [3] (strain M89953) and in series [3] (strain M89955) was >25 µM each time. Also, the MIC in series [3] (strain M89963) is >25 µM.
In the case of `CC(=O)N[C@H](CCCCN)C(=O)N[C@H](CC(C)C)C(=O)N[C@H](CCCNC(=N)N)C(=O)N[C@H](CO)C(=O)N[C@H](CC(C)C)C(=O)N[C@H](CC(C)C)C(=O)N[C@H](CCCNC(=N)N)C(=O)N[C@@H](C(=O)N[C@H](CC(C)C)C(=O)N[C@H](CO)C(=O)N[C@H](CCCNC(=N)N)C(=O)N[C@H](C)C(=O)N[C@H](CCCCN)C(=O)N[C@H](C)C(=O)N[C@H](C)C(=O)N[C@H](CCCCN)C(=O)N[C@H](CC(C)C)C(=O)N[C@H](CCCNC(=N)N)C(=O)N[C@@H](C(=O)N[C@H](CC(C)C)C(=O)N[C@H](CC(C)C)C(=O)N[C@H](CCCNC(=N)N)C(=O)N[C@H](C)C(=O)N[C@H](CC(C)C)C(=O)N[C@H](CO)C(=O)N[C@H](CCCNC(=N)N)C(N)=O)[C@H](C)O)[C@H](C)O` [Peptide D87, Ac-KL(Arg)SLL(Arg)TLS(Arg)AKAAKL(Arg)TLL(Arg)ALs(Arg)-amide] (Ac-[dK][dL][dR][dS][dL][dL][dR][dT][dL][dS][dR][dA][dK][dA][dA][dK][dL][dR][dT][dL][dL][dR][dA][dL][dS][dR]-NH2), the HC50 at 18 h in series [4] (setting [5]) worked out at 12 µg/mL.
As for `CC(=O)N[C@H](CCCCN)C(=O)N[C@H](CC(C)C)C(=O)N[C@H](CCCCN)C(=O)N[C@H](CO)C(=O)N[C@H](CC(C)C)C(=O)N[C@H](CC(C)C)C(=O)N[C@H](CCCCN)C(=O)N[C@@H](C(=O)N[C@H](CC(C)C)C(=O)N[C@H](CO)C(=O)N[C@H](CCCCN)C(=O)N[C@H](C)C(=O)N[C@H](CCCCN)C(=O)N[C@H](C)C(=O)N[C@H](C)C(=O)N[C@H](CCCCN)C(=O)N[C@H](CC(C)C)C(=O)N[C@H](CCCCN)C(=O)N[C@@H](C(=O)N[C@H](CC(C)C)C(=O)N[C@H](CC(C)C)C(=O)N[C@H](CCCCN)C(=O)N[C@H](C)C(=O)N[C@H](CC(C)C)C(=O)N[C@H](CO)C(=O)N[C@H](CCCCN)C(N)=O)[C@H](C)O)[C@H](C)O` [Peptide D84, Ac-KL(Lys)SLL(Lys)TLS(Lys)AKAAKL(Lys)TLL(Lys)ALS(Lys)-amide], the MIC in series [3] (strain MB9941 (Table 9C)) was 0.3 µM (≈ 0.86 µg/mL); in series [3] (strain MB9949 (Table 9C)) it was 0.7 µM (≈ 2.01 µg/mL); in series [3] (strain MB9951 (Table 9C)), 0.3 µM (≈ 0.86 µg/mL); in series [3] (strain MB9952 (Table 9C)), 0.7 µM (≈ 2.01 µg/mL); in series [3] (strain MB9953 (Table 9C)), 0.7 µM (≈ 2.01 µg/mL); in series [3] (strain MB9955 (Table 9C)), 0.3 µM (≈ 0.86 µg/mL). The same compound came in with an MIC in series [3] (strain MB9963 (Table 9C)) of 0.7 µM (≈ 2.01 µg/mL). In series [4] (human), this compound had an HC50 at 18 h of 156 µg/mL.
For `CC(=O)N[C@H](CCCCN)C(=O)N[C@H](CC(C)C)C(=O)N[C@H](CCCCN)C(=O)N[C@H](CO)C(=O)N[C@H](CC(C)C)C(=O)N[C@H](CC(C)C)C(=O)N[C@H](CCCCN)C(=O)N[C@@H](C(=O)N[C@H](CC(C)C)C(=O)N[C@H](CO)C(=O)N[C@H](CCCCN)C(=O)N[C@H](C)C(=O)N[C@H](CCCCN)C(=O)N[C@H](C)C(=O)N[C@H](C)C(=O)N[C@H](CCCCN)C(=O)N[C@H](CC(C)C)C(=O)N[C@H](CCCCN)C(=O)N[C@@H](C(=O)N[C@H](CC(C)C)C(=O)N[C@H](CC(C)C)C(=O)N[C@H](CCCCN)C(=O)N[C@H](C)C(=O)N[C@H](CC(C)C)C(=O)N[C@H](CO)C(=O)N[C@H](CO)C(N)=O)[C@H](C)O)[C@H](C)O` [Peptide D101, Ac-KL(Lys)SLL(Lys)TLS(Lys)AKAAKL(Lys)TLL(Lys)ALSS-amide], the HC50 at 18 h in series [4] (setting [5]) is 279 µg/mL and > 104 µM.
Turning to `Cc1onc(-c2ccccc2)c1C(=O)N[C@@H]1C(=O)N2[C@@H]1SC(C)(C)[C@@H]2C(=O)O` [Oxacillin], the “Antibiotic Susceptibility” value in series [1] (MRSA strain M21742 (Nose)), in series [1] (MRSA strain M21756 (Nose)), in series [1] (MRSA strain M22111 (Ear)), in series [1] (MRSA strain M22130), in series [1] (MRSA strain M22224 (Leg)) and in series [1] (MRSA strain M22354) was “R” throughout. Further, the “Antibiotic Susceptibility” value in series [1] (MRSA strain M22360 (Labia)) is “R”; in series [1] (MRSA strain M22424 (Arm)) it was “R^c”; in series [2] (MSSA strain BL7429 (Blood)), “S”; in series [2] (MSSA strain M21913 (Finger)), “S”; in series [2] (MSSA strain M22075 (Axilla)), “S”; in series [2] (MSSA strain M22097 (Neck)), “S”. For the same compound, the “Antibiotic Susceptibility” value in series [2] (MSSA strain M22274 (Spine)), in series [2] (MSSA strain M22287 (Hip)), in series [2] (MSSA strain M22300 (Finger)), in series [2] (MSSA strain M22312 (Finger)) and in series [2] (MSSA strain M22315) was “S” throughout.
In the case of `CC(=O)N[C@H](CCCCN)C(=O)N[C@H](CC(C)C)C(=O)N[C@H](CCCN)C(=O)N[C@H](CO)C(=O)N[C@H](CC(C)C)C(=O)N[C@H](CC(C)C)C(=O)N[C@H](CCCN)C(=O)N[C@@H](C(=O)N[C@H](CC(C)C)C(=O)N[C@H](CO)C(=O)N[C@H](CCCN)C(=O)N[C@H](C)C(=O)N[C@H](CCCCN)C(=O)N[C@H](C)C(=O)N[C@H](C)C(=O)N[C@H](CCCCN)C(=O)N[C@H](CC(C)C)C(=O)N[C@H](CCCN)C(=O)N[C@@H](C(=O)N[C@H](CC(C)C)C(=O)N[C@H](CC(C)C)C(=O)N[C@H](CCCN)C(=O)N[C@H](C)C(=O)N[C@H](CC(C)C)C(=O)N[C@H](CO)C(=O)N[C@H](CCCN)C(N)=O)[C@H](C)O)[C@H](C)O` [Peptide D85, Ac-KL(Orn)SLL(Orn)TLS(Orn)AKAAKL(Orn)TLL(Orn)ALS(Orn)-amide], the MIC amounted to 0.7 µM (≈ 1.95 µg/mL) in series [3] (strain MB9941 (Table 9C)); 0.7 µM (≈ 1.95 µg/mL) in series [3] (strain MB9949 (Table 9C)); 0.7 µM (≈ 1.95 µg/mL) in series [3] (strain MB9951 (Table 9C)); 0.4 µM (≈ 1.11 µg/mL) in series [3] (strain MB9952 (Table 9C)); 0.4 µM (≈ 1.11 µg/mL) in series [3] (strain MB9953 (Table 9C)); 0.4 µM (≈ 1.11 µg/mL) in series [3] (strain MB9955 (Table 9C)). Further, in series [3] (strain MB9963 (Table 9C)), the MIC worked out at 0.4 µM (≈ 1.11 µg/mL). The HC50 at 18 h in series [4] (human) stood at 406 µg/mL.
Take `CC(=O)N[C@H](CCCCN)C(=O)N[C@H](CC(C)C)C(=O)N[C@H](CCCCN)C(=O)N[C@H](CO)C(=O)N[C@H](CC(C)C)C(=O)N[C@H](CC(C)C)C(=O)N[C@H](CCCCN)C(=O)N[C@@H](C(=O)N[C@H](CC(C)C)C(=O)N[C@H](CO)C(=O)N[C@H](C)C(=O)N[C@H](C)C(=O)N[C@H](CCCCN)C(=O)N[C@H](CCCCN)C(=O)N[C@H](CCCCN)C(=O)N[C@H](CCCCN)C(=O)N[C@H](CC(C)C)C(=O)N[C@H](C)C(=O)N[C@@H](C(=O)N[C@H](CC(C)C)C(=O)N[C@H](CC(C)C)C(=O)N[C@H](CCCCN)C(=O)N[C@H](C)C(=O)N[C@H](CC(C)C)C(=O)N[C@H](CO)C(=O)N[C@H](CO)C(N)=O)[C@H](C)O)[C@H](C)O` [Peptide D103, Ac-KL(Lys)SLL(Lys)TLSAAK(Lys)(Lys)KLATLL(Lys)ALSS-amide] (Ac-[dK][dL][dK][dS][dL][dL][dK][dT][dL][dS][dA][dA][dK][dK][dK][dK][dL][dA][dT][dL][dL][dK][dA][dL][dS][dS]-NH2): the HC50 at 18 h in series [4] (setting [5]) was 381 µg/mL and 135 µM.
For the compound Colistin [reference compound], in series [3], the MICGM was >28 µM. In addition, the MIC in series [3] (strain M89941), in series [3] (strain M89949), in series [3] (strain M89951), in series [3] (strain M89952), in series [3] (strain M89953) and in series [3] (strain M89955) was >28 µM throughout. Moreover, the MIC in series [3] (strain M89963) is >28 µM.
Turning to `CCC[C@@H]1C[C@@H](C(=O)N[C@@H]([C@H]2O[C@H](SC)[C@H](O)[C@@H](O)[C@H]2O)[C@H](C)Cl)N(C)C1` [Clindamycin], the “Antibiotic Susceptibility” value was “S” in series [1] (MRSA strain M21742 (Nose)); “S” in series [1] (MRSA strain M21756 (Nose)); “R” in series [1] (MRSA strain M22111 (Ear)); “S” in series [1] (MRSA strain M22130); “S” in series [1] (MRSA strain M22224 (Leg)); “S” in series [1] (MRSA strain M22354). Also, the “Antibiotic Susceptibility” value is listed as “S” in series [1] (MRSA strain M22360 (Labia)); “S^c” in series [1] (MRSA strain M22424 (Arm)); “S” in series [2] (MSSA strain BL7429 (Blood)); “S” in series [2] (MSSA strain M21913 (Finger)); “S” in series [2] (MSSA strain M22075 (Axilla)); “S” in series [2] (MSSA strain M22097 (Neck)). Also, the “Antibiotic Susceptibility” value in series [2] (MSSA strain M22274 (Spine)), in series [2] (MSSA strain M22287 (Hip)), in series [2] (MSSA strain M22300 (Finger)), in series [2] (MSSA strain M22312 (Finger)) and in series [2] (MSSA strain M22315) was “S” throughout.
